Assay: Solubility of desvenlafaxine salts in water at 23° C.
Conditions: for Solubility of desvenlafaxine salts in water: 23° C.

Row | SMILES | Solubility of desvenlafaxine salts in water | solubility in water (result in words) (refers to Table 1)
1 | CN(C)CC(c1ccc(O)cc1)C1(O)CCCCC1.O=C(O)C1OC(O)C(O)C(O)C1O [glucuronate amorphous, desvenlafaxine D-glucuronate] | 338 mg/mL | 
2 | CN(C)CC(c1ccc(O)cc1)C1(O)CCCCC1.O=C[C@H](O)[C@@H](O)[C@H](O)[C@H](O)C(=O)O (stereo not drawn) [O-desmethyl-venlafaxine glucuronate] |  | good solubility in water
3 | CN(C)CC(c1ccc(O)cc1)C1(O)CCCCC1.O.O=C(O)C1OC(O)C(O)C(O)C1O [glucuronate crystalline, desvenlafaxine D-glucuronate monohydrate] | 299 mg/mL | 

Source: US8604194B2, “Salts of O-desmethyl-venlafaxine” (Lek Pharmaceuticals D.D., priority 2008, dated 2013)
